Laboratory results as given in patent publication US11731946B2, “Broad spectrum antivirulence, anti-persistence compounds” (priority 2017, dated 2023).
Where “and” joins values, the source holds several entries; their conditions need not be identical. Identical values can stand only once.

How the values were obtained:
MvfR regulon [1] = test: Quantification of pyocyanin (OD520nm of chloroform-extracted cultures); assay type: cell-based, P. aeruginosa; conditions: Pseudomonas aeruginosa
MvfR regulon [2] = test: pqsA gene expression (pqsA-GFP reporter); assay type: cell-based, P. aeruginosa; conditions: Pseudomonas aeruginosa
MvfR regulon [3] = test: LC/MS quantification of HAQs and related molecules in bacterial culture supernatants; assay type: cell-based, P. aeruginosa; conditions: for IC50 / activity at 50 µM: Pseudomonas aeruginosa
MvfR = biological target: T1, MvfR (Pseudomonas aeruginosa, UniProt Q9I4X0); test: Surface plasmon resonance (SPR) binding to purified MvfR co-inducer binding domain; design: species or system P. aeruginosa
T1 construct: made in house
T1 sequence (Q9I4X0 91-332): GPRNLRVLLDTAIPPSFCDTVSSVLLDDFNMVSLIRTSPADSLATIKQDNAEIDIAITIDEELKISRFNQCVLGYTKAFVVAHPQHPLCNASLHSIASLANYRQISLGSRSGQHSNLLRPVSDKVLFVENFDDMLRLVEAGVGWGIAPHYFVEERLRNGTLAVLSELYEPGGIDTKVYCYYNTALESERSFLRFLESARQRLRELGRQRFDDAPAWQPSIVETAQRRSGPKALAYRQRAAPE
Protocol: Compounds identified to interfere with MvfR were confirmed for the direct physical interaction with this protein. Using SPR, the percentage of compound's binding to the purified MvfR protein was analyzed and used to determine the binding parameters (KD, kon and koff)—thus determining the kinetic of interaction with MvfR.
The recombinant MvfR co-inducer binding domain was purified using Ni-NTA chromatography, as previously reported (see e.g., Xiao et al, Microbiology, 2006, 152:1679-1686; Starkey et al, PLoS Pathog. 2014, 10:e1004321; and Kefala et al, Acta. Crystallogr. Sect. F. Struct. Biol. Cryst. Commun. 2012, 68:695-697). The purified protein was immobilized with the amine coupling method at a target level of 5000 RU on Chip. SPR was performed according to previously reported procedures (see e.g., Starkey et al, PLoS Pathog. 2014, 10:e1004321; Maura et al, ACS Chemical Biology, 2017, 12:1435-1443; and Kitao et al, MBIO, in press). […] Table 3 lists the steady-state KD data measured by SPR.

PA14 [4] = test: Antibiotic tolerance/persister (AT/P) cell formation, meropenem, CFU plating; assay type: cell-based, P. aeruginosa; conditions: 50 μM compound
Protocol: Wild type (PA14) P. aeruginosa was grown in liquid culture with or without Compound 54 and treated with meropenem according to published procedures (see e.g., Starkey et al, PLoS Pathog. 2014, 10:e1004321). Data are expressed as fraction of original culture surviving antibiotic treatment.
AT/P efficacy of compounds using CFU plating was assessed by growning over-night, cultures diluted 1:100 in triplicate in fresh LB medium in the presence or absence of inhibitor, and re-grown to an OD600 of 2.0 while shaking under aeration at 37° C. Before the antibiotic treatment, aliquots were plated to obtain reference colony counts. […] At 24-h and 48-h time points, the number of surviving bacteria were assessed by plating. The survival fraction of AT/P cells was calculated by dividing the number of surviving bacteria by the number of live bacteria that were present before the antibiotic treatment (reference datum) and expressed as a mean (±SD) of at least three replicate experiments. Using the same CFU plating assay, the efficacy of all compounds identified will be tested against additional antibiotic classes: b-lactams (ceftazidime, cefepime and imipenem), quinolones (ciprofloxacin, moxifloxacin, and levofloxacin), and aminoglycosides (gentamicin and tobramycicn).

[5] = Pharmacokinetics in mouse plasma and lung after single subcutaneous injection; assay type: in vivo, mice; conditions: for stability in vivo (serum concentration): 10 mg/kg subcutaneous, over 24 h
Protocol: FIGS. 1F-1G show pharmacokinetics measured in mouse plasma (FIG. 1F) and lung (FIG. 1G) following a single subcutaneous injection of Compounds 53, 54, or 72 at 10 mg/kg.

PA14 [6] = test: Acute mouse lung infection model (PA14); assay type: in vivo, mice
[7] = test system: Caco2 intestinal epithelial cells; test: Survival of Caco2 cells after compound exposure; assay type: cell-based; conditions: 25 μM, 3 hours exposure

Which IC50 (MvfR regulon [1]; read-out: IC50 pyocyanin (μM)) does the source give for `N#Cc1ccc(NC(=O)CC(=O)Nc2ccc(Br)cc2)cc1` [Compound 54] here?
Its IC50 is 1.8 µM.

And the activity at 1 µM (MvfR regulon [1]; read-out: pyocyanin @1 uM (%), compound at 1 uM)?
Its activity at 1 µM is 60.8%.

And the activity at 10 µM (MvfR regulon [1]; read-out: pyocyanin @10 uM (%), compound at 10 uM)?
Its activity at 10 µM is 5.9%.

And the activity at 50 µM (MvfR regulon [1]; read-out: pyocyanin @50 uM (%), compound at 50 uM)?
Its activity at 50 µM is 5.7%.

What about the IC50 (MvfR regulon [2]; read-out: IC50 pqsA (μM)) of the same compound?
The IC50 was 1.28 µM.

What about the activity at 10 µM (MvfR regulon [2]; read-out: pqsA @10 uM (%), compound at 10 uM) of the same compound?
Its activity at 10 µM is 8.8%.

And the activity at 50 µM (MvfR regulon [2]; read-out: pqsA @50 uM (%), compound at 50 uM)?
Its activity at 50 µM is 7.93%.

And the IC50 (MvfR regulon [3]; PA14, read-out: IC50 2-AA (μM))?
Its IC50 is 4.7 µM.

What about the IC50 (MvfR regulon [3]; PA14, read-out: IC50 DHQ (μM)) of the same compound?
Its IC50 is 10.1 µM.

And the IC50 (MvfR regulon [3]; PA14, read-out: IC50 HHQ (μM))?
The IC50 was 11.2 µM.

And the IC50 (MvfR regulon [3]; PA14, read-out: IC50 PQS (μM))?
Its IC50 is 7.8 µM.

What about the activity at 50 µM (MvfR regulon [3]; read-out: 2-AA @50 uM) of the same compound?
The activity at 50 µM was 5.63%.

What about the activity at 50 µM (MvfR regulon [3]; read-out: AA @50 uM) of the same compound?
Its activity at 50 µM is 701%.

And the activity at 50 µM (MvfR regulon [3]; read-out: DHQ @50 uM)?
The activity at 50 µM was 10.6%.

What about the activity at 50 µM (MvfR regulon [3]; read-out: HHQ @50 uM (%)) of the same compound?
The activity at 50 µM was 1.76%.

What about the activity at 50 µM (MvfR regulon [3]; read-out: HQNO @50 uM (%)) of the same compound?
The activity at 50 µM was 12.5%.

What about the IC50 (MvfR regulon [3]; read-out: IC50 AA (increase; μM)) of the same compound?
Its IC50 is 11.3 µM.

And the IC50 (MvfR regulon [3]; read-out: IC50 HQNO (μM))?
Its IC50 is 8.7 µM.

What about the activity at 50 µM (MvfR regulon [3]; read-out: PQS @50 uM (%)) of the same compound?
The activity at 50 µM was 7.4%.

And the “reduction of hydroxy-2-alkylquinoline (HAQ) and 2-AA production” value (MvfR regulon [3]; liquid culture grown with 50 µM Compound 54 (FIG. 1C))?
The value was 5 to 10 fold.

And the “binding to MvfR (in words)” value (MvfR; FIG. 1B)?
The value was “high affinity”.

And the “Signal Intensity Rmax” value (MvfR; SPR)?
The value was 28.21.

And the “binding intensity relative to parent Compound 1” value (MvfR; SPR)?
Its value is 40 times.

And the Kd (MvfR; Steady State Binding Affinity KD (μM), SPR, steady state)?
Its Kd is 0.275 µM.

What about the Kd (MvfR; Steady State Binding Affinity KD [M], SPR, steady state) of the same compound?
The Kd was 0.275 µM.

And the Kd (MvfR; mean KD value, SPR, mean over the compounds named)?
Its Kd is ~0.25 µM and 0.25 µM.

And the inhibition of persistence (PA14 [4])?
Its inhibition of persistence is “inhibit persistence”.

What about the “stability in vivo (serum concentration)” value [5] of the same compound?
Its value is “stable in vivo”.

And the “stability in vivo (serum concentration)” value ([5]; listed as D42)?
The value was “highly stable in vivo”.

And the “pharmacokinetics (in words)” value ([5]; mouse, in vivo)?
The value was “promising pharmacokinetics”.

What about the “potentiation of ciprofloxacin in reducing PA cells in mice lungs” value (PA14 [6]; 10 mg/kg compound SC plus ciprofloxacin 1 mg/kg IP, CFUs 24 h post-infection) of the same compound?
The value was “potentiates ciprofloxacin efficacy”.

What about the “recoverable CFUs from infected lungs” value (PA14 [6]; preliminary, intranasal infection, 10 mg/kg compound vs vehicle) of the same compound?
Its value is “reduces the recoverable CFUs from infected lungs”.

And the “toxicity to Caco2 (survival)” value [7]?
The value was “not toxic”.
